Experimental data: US9266832B2, “Compounds for the treatment of neurodegenerative diseases” (Katholieke Universiteit Levun, priority 2010, dated 2016)

tested on: M17-TAU P301L cells; assay: Tau-induced toxicity experiment: LDH leakage of retinoic acid incubated M17-TAU P301L cells; assay type: cell-based; conditions: Homo sapiens, Neuroblastoma cell, 168 h; reduction of LDH activity of retinoic acid incubated M17-TAU P301L neuroblastoma cells, 7 days
Source text: A TAU expression plasmid was constructed by sub-cloning the cDNA of human TAU-P301L (encoding for TAU with proline 301 substituted by a leucine residue) into mammalian expression vector pcDNA3.1 resulting in plasmid pcDNA3.1-TAU P301L. Plasmids pcDNA3.1 and pcDNA3.1-TAU P301L were transfected to human neuroblastoma cells ([…]; ATCC No. CRL-2267) and independent clonal lines with the plasmids stably integrated into the genome were selected. […] Expression of the TAU P301L genes in the cell lines was confirmed by Western analysis.
In degenerated or dead cells lactate dehydrogenase (LDH) is leaked out of the cells into the extracellular environment due to a loss of plasma-membrane integrity. This principle was used to determine cytotoxicity by quantifying the level of leaked LDH into the growth medium.
The detailed method for determining TAU cytotoxicity was as follows: From appropriate precultures of M17-3.1 and M17-TAU(P301L) cells were seeded at 2500 cells/cm2 in Optimem Reduced Serum without phenol red (Gibco, Cat. 31985-047) supplemented with 1% fetal calf serum, 1 mM sodium pyruvate, 1× non-essential amino acids, 500 μg/ml G418 0.5× antibiotic/antimycotic. After 3 h of incubation at 37° C./5% CO2 1 volume of Optimem Reduced Serum (same as described above; except without fetal calf serum) supplemented with 2.5 μM retinoic acid (RA) was added. The cells were further incubated for 7 days. Subsequently, LDH activity was determined using Promega Cytotox 96 Non-Radioactive cytotoxicity assay, (Cat. G1780) according the supplier's instructions.
The M17-TAU P301L cell line made it possible to assess the ability of novel compounds to counteract TAU cytotoxicity. […] These measurements were used to calculate EC50 values of table 2.

| SMILES | EC50 |
| --- | --- |
| Cn1cc(CCNC(=O)c2ccc(Cc3cccc(F)c3)cc2)c2cc(Cl)ccc21 [Cpd091, N-(2-(5-chloro-1-methyl-1H-indol-3-yl)ethyl)-4-(3-fluorobenzyl)benzamide] | 581 nM |
| O=C(NCCc1c[nH]c2ccc(Cl)cc12)c1ccc(Nc2ccccc2)cc1 [Cpd092, N-(2-(5-chloro-1H-indol-3-yl)ethyl)-4-(phenylamino)benzamide] | 76 nM |
| O=C(NCCc1c[nH]c2ccc(Cl)cc12)c1ccc(Oc2ccccc2)cc1 [Cpd093, N-(2-(5-chloro-1H-indol-3-yl)ethyl)-4-phenoxybenzamide] | 293 nM |
| O=C(NCCc1c[nH]c2ccc(Cl)cc12)c1cccc(Nc2ccccc2)c1 [Cpd094, N-(2-(5-chloro-1H-indol-3-yl)ethyl)-3-(phenylamino)benzamide] | 161 nM |
| O=C(NCCc1c[nH]c2ccc(Cl)cc12)c1cccc(Oc2ccccc2)c1 [Cpd095, N-(2-(5-chloro-1H-indol-3-yl)ethyl)-3-phenoxybenzamide] | 241 nM |
| CN(c1ccccc1)c1ccc(C(=O)NCCc2c[nH]c3ccc(Cl)cc23)cc1 [Cpd096, N-(2-(5-chloro-1H-indol-3-yl)ethyl)-4-(methyl(phenyl)amino)benzamide] | 470 nM |
| CN(c1ccccc1)c1cccc(C(=O)NCCc2c[nH]c3ccc(Cl)cc23)c1 [Cpd097, N-(2-(5-chloro-1H-indol-3-yl)ethyl)-3-(methyl(phenyl)amino)benzamide] | 270 nM |
| Cc1[nH]c2ccc(Cl)cc2c1CCNC(=O)c1ccc(Cc2cccc(F)c2)cc1 [Cpd098, N-(2-(5-chloro-2-methyl-1H-indol-3-yl)ethyl)-4-(3-fluorobenzyl)benzamide] | 535 nM |
| O=C(NCCc1c[nH]c2ccc(Cl)cc12)c1ccc(Cc2cccc(F)c2)cc1F [Cpd099, N-(2-(5-chloro-1H-indol-3-yl)ethyl)-2-fluoro-4-(3-fluorobenzyl)benzamide] | 27 nM |
| O=C(NCCc1c[nH]c2ccc(Cl)cc12)c1ccc(Cc2cccc(F)c2)c(F)c1 [Cpd100, N-(2-(5-chloro-1H-indol-3-yl)ethyl)-3-fluoro-4-(3-fluorobenzyl)benzamide] | 44 nM |
| O=C(NCCc1c[nH]c2ncc(Cl)cc12)c1ccc(Cc2cccc(F)c2)cc1 [Cpd101, N-(2-(5-chloro-1H-pyrrolo[2,3-b]pyridin-3-yl)ethyl)-4-(3-fluorobenzyl)benzamide] | 1050 nM |
| O=C(NCCc1c[nH]c2ccc(Cl)cc12)c1ccc(Cc2cc(F)ccc2F)cc1 [Cpd102, N-(2-(5-chloro-1H-indol-3-yl)ethyl)-4-(2,5-difluorobenzyl)benzamide] | 49 nM |
| O=C(NCCc1c[nH]c2ccc(Cl)cc12)c1ccc(Cc2cccc(F)c2F)cc1 [Cpd103, N-(2-(5-chloro-1H-indol-3-yl)ethyl)-4-(2,3-difluorobenzyl)benzamide] | 139 nM |
| CN(c1ccc(C(=O)NCCc2c[nH]c3ccc(Cl)cc23)cc1)c1cccc(F)c1 [Cpd104, N-(2-(5-chloro-1H-indol-3-yl)ethyl)-4-((3-fluorophenyl)(methyl)amino)benzamide] | 264 nM |
| O=C(NCCc1c[nH]c2ccc(Cl)cc12)c1ccc(Oc2cccc(F)c2)cc1 [Cpd105, N-(2-(5-chloro-1H-indol-3-yl)ethyl)-4-(3-fluorophenoxy)benzamide] | 112 nM |
| O=C(NCCc1c[nH]c2ccc(Cl)cc12)c1ccc(Nc2cccc(F)c2)cc1 [Cpd106, N-(2-(5-chloro-1H-indol-3-yl)ethyl)-4-(3-fluorophenylamino)benzamide] | 82 nM |
| O=C(NCCc1c[nH]c2ccc(Cl)cc12)c1ccc(Cc2cccc(F)c2)cn1 [Cpd107, N-(2-(5-chloro-1H-indol-3-yl)ethyl)-5-(3-fluorobenzyl)picolinamide] | 26 nM |
| O=C(NCCc1c[nH]c2ccc(C(F)(F)F)cc12)c1ccc(Cc2cccc(F)c2)cc1 [Cpd108, 4-(3-fluorobenzyl)-N-(2-(5-(trifluoromethyl)-1H-indol-3-yl)ethyl)benzamide] | 320 nM |
